# In publication PMC9551036, “A selective and orally bioavailable VHL-recruiting PROTAC achieves SMARCA2 degradation in vivo” (Nature Communications, 2022):
# Where “and” joins values, the source holds several entries; their conditions need not be identical. Equal values may be shown once.
# Tests used:
# SMARCA2/4 [1] = target: T1, SMARCA2/4 (Homo sapiens, UniProt P51532); assay: SMARCA2/4 half-life (cycloheximide) and re-synthesis after compound 6 and VHL binder in HCT116 and RKO; assay type: cell-based; settings: for K (one phase exponential decay) / Tau (one phase exponential decay): CHX
# T1 construct: endogenous in cells; host or cells: HCT116, RKO
# T1 sequence (P51532 whole entry): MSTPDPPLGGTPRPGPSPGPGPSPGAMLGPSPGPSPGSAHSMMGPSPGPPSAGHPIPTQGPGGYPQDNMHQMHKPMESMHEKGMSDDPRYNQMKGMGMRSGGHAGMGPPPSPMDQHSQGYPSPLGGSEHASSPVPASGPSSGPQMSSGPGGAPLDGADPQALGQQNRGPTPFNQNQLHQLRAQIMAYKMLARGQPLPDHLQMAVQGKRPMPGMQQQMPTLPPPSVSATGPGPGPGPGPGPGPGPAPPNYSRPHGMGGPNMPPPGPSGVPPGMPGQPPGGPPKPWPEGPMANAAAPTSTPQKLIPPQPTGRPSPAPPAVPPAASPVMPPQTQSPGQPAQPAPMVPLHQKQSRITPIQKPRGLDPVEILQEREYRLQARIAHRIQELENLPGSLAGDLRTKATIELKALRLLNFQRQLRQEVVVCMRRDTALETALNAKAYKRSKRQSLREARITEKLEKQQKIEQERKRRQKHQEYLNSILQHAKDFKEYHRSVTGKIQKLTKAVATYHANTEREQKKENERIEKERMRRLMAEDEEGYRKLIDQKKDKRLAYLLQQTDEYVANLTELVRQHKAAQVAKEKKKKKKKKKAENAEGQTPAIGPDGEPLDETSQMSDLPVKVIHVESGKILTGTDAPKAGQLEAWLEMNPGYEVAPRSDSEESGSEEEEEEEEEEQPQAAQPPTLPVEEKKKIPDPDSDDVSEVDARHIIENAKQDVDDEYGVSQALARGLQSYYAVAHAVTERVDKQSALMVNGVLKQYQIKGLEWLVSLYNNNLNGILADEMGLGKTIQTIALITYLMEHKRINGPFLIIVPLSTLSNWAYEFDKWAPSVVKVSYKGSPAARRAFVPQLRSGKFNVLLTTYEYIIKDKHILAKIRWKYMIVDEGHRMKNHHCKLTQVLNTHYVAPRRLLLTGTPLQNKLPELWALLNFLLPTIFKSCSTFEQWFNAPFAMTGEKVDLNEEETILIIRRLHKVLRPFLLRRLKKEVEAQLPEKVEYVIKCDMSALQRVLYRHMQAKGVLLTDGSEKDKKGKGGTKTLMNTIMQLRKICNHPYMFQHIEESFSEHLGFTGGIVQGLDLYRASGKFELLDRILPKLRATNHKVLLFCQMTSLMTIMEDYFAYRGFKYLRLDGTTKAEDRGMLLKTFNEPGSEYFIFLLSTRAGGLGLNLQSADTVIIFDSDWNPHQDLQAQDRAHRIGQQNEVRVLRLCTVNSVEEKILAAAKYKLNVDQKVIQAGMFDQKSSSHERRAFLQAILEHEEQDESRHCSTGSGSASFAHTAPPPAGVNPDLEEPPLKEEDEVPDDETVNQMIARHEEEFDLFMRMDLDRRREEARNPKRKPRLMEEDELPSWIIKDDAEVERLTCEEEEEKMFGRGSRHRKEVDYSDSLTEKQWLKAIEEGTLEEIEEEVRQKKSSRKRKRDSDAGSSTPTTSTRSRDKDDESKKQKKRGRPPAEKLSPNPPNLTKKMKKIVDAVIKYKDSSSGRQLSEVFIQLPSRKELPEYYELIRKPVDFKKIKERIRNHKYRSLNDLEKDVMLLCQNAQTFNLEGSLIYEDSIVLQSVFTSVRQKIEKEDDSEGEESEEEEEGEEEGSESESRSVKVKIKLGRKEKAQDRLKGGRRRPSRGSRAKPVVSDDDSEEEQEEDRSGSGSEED
# Procedure: (§1) 130,000–200,000 cells were seeded in 24-well plates and incubated until settled down or overnight. Compounds were dissolved in DMSO and added to cells in indicated concentrations using a digital dispenser following an optional media change. […] For SMARCA2/4 half-life determination, 150,000 or 200,000 cells were seeded in 24-well plates. […] For SMARCA2/4 re-synthesis measurements, 200,000 cells were seeded in 24-well plates. The next day, 100 nM compound 6 was added for 4 h to degrade SMARCA2/4, and a sample was taken as baseline for normalisation. […] Medium was removed, cells were washed with PBS and lysed with 80 µl Lysis Buffer (MSD Tris Lysis Buffer (#R60TX-2) + Halt Inhibitor Cocktail (100x) + Benzonase 0.5 µL/ml). Samples were frozen at −80 °C and thawed at room temperature before use. Samples were transferred to a V-bottom plate and insoluble debris was pelleted by centrifugation for 5 min at maximum speed. The supernatant was transferred to a fresh plate. Master Mix and Ladder were prepared according to manufacturer’s instructions for 12–230 kDa Wes Separation Module, 8 × 25 capillary cartridges, Protein Simple #SM-W004 with Anti-Rabbit Detection Module for Wes, Peggy Sue or Sally Sue, Protein Simple #DM-001. 4.8 µl lysate were mixed with 1.2 µl Master Mix to achieve a protein concentration of ~0.5 µg/µl. Antibodies were diluted in Antibody Diluent II (SMARCA2 Sigma #HPA029981 RRID:AB_10602406 1:25–100, SMARCA4 Cell Signalling #49360 clone D1Q7F RRID:AB_2728743 1:15–120 or Abcam #ab110641 clone EPNCIR111A RRID:AB_10861578 1:60, GAPDH Abcam #ab9485 RRID:AB_307275 1:250). Wes plates were prepared and run according to manufacturer’s instructions. Proteins were quantified with accompanying Compass Software. SMARCA2/4 protein levels were normalised to GAPDH. […] Where applicable, curves were fitted using a 4-parametric logistic model.
# SMARCA2/4 [2] = target: T2, SMARCA2/4 (Homo sapiens, UniProt P51531); assay: as above; assay type: cell-based; settings: for K (one phase exponential decay) / Tau (one phase exponential decay): CHX
# T2 construct: endogenous in cells; host or cells: HCT116, RKO
# T2 sequence (P51531 whole entry): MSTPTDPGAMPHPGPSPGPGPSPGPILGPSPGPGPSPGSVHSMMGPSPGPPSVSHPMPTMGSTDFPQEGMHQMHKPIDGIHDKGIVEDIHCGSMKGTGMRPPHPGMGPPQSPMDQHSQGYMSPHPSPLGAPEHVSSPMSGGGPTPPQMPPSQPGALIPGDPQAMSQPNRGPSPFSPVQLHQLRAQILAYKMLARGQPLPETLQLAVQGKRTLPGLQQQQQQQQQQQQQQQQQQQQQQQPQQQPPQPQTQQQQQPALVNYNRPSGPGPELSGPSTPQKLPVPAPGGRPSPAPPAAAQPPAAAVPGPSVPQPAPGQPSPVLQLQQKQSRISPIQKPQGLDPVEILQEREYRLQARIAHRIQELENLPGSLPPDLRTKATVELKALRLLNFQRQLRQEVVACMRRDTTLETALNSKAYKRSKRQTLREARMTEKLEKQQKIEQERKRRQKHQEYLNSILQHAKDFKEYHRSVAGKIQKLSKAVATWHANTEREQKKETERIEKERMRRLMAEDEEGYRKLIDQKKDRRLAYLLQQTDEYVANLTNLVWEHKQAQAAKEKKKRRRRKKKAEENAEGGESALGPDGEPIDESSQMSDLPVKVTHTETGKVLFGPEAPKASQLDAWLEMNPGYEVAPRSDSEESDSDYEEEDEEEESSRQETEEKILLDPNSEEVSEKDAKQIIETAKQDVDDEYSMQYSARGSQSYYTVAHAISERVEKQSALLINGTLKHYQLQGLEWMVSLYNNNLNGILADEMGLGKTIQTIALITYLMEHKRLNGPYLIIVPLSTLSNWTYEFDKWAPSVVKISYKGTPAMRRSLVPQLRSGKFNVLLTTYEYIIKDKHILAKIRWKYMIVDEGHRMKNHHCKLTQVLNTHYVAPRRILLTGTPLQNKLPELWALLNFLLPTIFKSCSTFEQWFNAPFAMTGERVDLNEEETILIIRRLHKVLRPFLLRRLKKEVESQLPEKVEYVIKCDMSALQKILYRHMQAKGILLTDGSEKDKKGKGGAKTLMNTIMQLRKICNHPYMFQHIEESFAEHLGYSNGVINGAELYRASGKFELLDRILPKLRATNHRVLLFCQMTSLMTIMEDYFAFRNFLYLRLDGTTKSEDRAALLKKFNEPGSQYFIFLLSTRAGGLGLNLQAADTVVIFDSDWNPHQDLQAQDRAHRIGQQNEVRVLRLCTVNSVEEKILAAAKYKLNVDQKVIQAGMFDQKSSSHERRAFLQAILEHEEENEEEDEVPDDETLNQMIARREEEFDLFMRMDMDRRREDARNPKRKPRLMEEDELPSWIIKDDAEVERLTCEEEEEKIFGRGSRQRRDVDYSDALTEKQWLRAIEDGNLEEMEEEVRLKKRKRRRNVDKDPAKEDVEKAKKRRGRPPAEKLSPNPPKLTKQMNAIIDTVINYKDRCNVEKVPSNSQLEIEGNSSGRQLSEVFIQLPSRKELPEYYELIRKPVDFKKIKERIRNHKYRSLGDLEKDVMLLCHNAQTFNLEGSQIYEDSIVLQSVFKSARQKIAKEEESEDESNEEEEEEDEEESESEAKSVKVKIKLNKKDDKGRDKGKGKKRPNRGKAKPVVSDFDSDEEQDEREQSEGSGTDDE
# Procedure: as §1
compound,measurement,setting,value
C[C@@H]1C[C@@H]([C@H](O)CC2CC(=O)NC(=O)C2)C(=O)[C@@H](C)C1 [CHX],K (one phase exponential decay),"SMARCA2/4 [1]; HCT116, SM4",0.01934
same,Tau (one phase exponential decay),"SMARCA2/4 [1]; HCT116, SM4",51.7 h
same,fraction protein remaining,"SMARCA2/4 [1]; HCT116, SM4, Time CHX 1 h",0.9048 and 0.6354 and 0.681
same,fraction protein remaining,"SMARCA2/4 [1]; HCT116, SM4, Time CHX 2 h",1.063 and 0.7806 and 0.7981
same,fraction protein remaining,"SMARCA2/4 [1]; HCT116, SM4, Time CHX 6 h",0.982 and 0.7891 and 0.769
same,fraction protein remaining,"SMARCA2/4 [1]; HCT116, SM4, Time CHX 18 h",0.6017 and 0.6088 and 0.5084
same,fraction protein remaining,"SMARCA2/4 [1]; HCT116, SM4, Time CHX 20 h",0.6375 and 0.6135 and 0.453
same,fraction protein remaining,"SMARCA2/4 [1]; HCT116, SM4, Time CHX 24 h",0.6439 and 0.582 and 0.7075
same,K (one phase exponential decay),"SMARCA2/4 [1]; RKO, SM4",0.05848
same,Tau (one phase exponential decay),"SMARCA2/4 [1]; RKO, SM4",17.1 h
same,fraction protein remaining,"SMARCA2/4 [1]; RKO, SM4, Time CHX 1 h",0.6419 and 0.7642 and 0.7888
same,fraction protein remaining,"SMARCA2/4 [1]; RKO, SM4, Time CHX 2 h",0.6538 and 0.6196 and 0.6177
same,fraction protein remaining,"SMARCA2/4 [1]; RKO, SM4, Time CHX 6 h",0.4106 and 0.4086 and 0.4599
same,fraction protein remaining,"SMARCA2/4 [1]; RKO, SM4, Time CHX 18 h",0.3137 and 0.4693 and 0.3349
same,fraction protein remaining,"SMARCA2/4 [1]; RKO, SM4, Time CHX 20 h",0.3111 and 0.4007 and 0.3018
same,fraction protein remaining,"SMARCA2/4 [1]; RKO, SM4, Time CHX 24 h",0.1564 and 0.2093 and 0.1216
same,K (one phase exponential decay),"SMARCA2/4 [2]; HCT116, SM2",0.01756
same,Tau (one phase exponential decay),"SMARCA2/4 [2]; HCT116, SM2",56.94 h
same,fraction protein remaining,"SMARCA2/4 [2]; HCT116, SM2, Time CHX 1 h",0.9134 and 0.9119 and 0.8363
same,fraction protein remaining,"SMARCA2/4 [2]; HCT116, SM2, Time CHX 2 h",1.19 and 0.984 and 1.003
same,fraction protein remaining,"SMARCA2/4 [2]; HCT116, SM2, Time CHX 6 h",1.2436 and 0.9973 and 0.8745
same,fraction protein remaining,"SMARCA2/4 [2]; HCT116, SM2, Time CHX 18 h",0.8497 and 0.6816 and 0.6174
same,fraction protein remaining,"SMARCA2/4 [2]; HCT116, SM2, Time CHX 20 h",0.8836 and 0.7383 and 0.515
same,K (one phase exponential decay),"SMARCA2/4 [2]; RKO, SM2",0.03021
same,Tau (one phase exponential decay),"SMARCA2/4 [2]; RKO, SM2",33.1 h
same,fraction protein remaining,"SMARCA2/4 [2]; RKO, SM2, Time CHX 1 h",0.6694 and 0.8157 and 0.6659
same,fraction protein remaining,"SMARCA2/4 [2]; RKO, SM2, Time CHX 2 h",0.8737 and 0.9723 and 0.8342
same,fraction protein remaining,"SMARCA2/4 [2]; RKO, SM2, Time CHX 6 h",0.9472 and 0.9944 and 0.8492
same,fraction protein remaining,"SMARCA2/4 [2]; RKO, SM2, Time CHX 18 h",0.7207 and 0.4914 and 0.6074
same,fraction protein remaining,"SMARCA2/4 [2]; RKO, SM2, Time CHX 20 h",0.6704 and 0.4369 and 0.5438
